{
  "source": "paper PMC8778022",
  "about": "“Synthesis and Biological Activity of 3-(Heteroaryl)quinolin-2(1H)-ones Bis-Heterocycles as Potential Inhibitors of the Protein Folding Machinery Hsp90” (Molecules, 2022)",
  "key": {"[1]": {"assay": "MTS cell viability assay, MRC-5 cells, 72 h", "format": "cell-based, human", "conditions": "human, MRC-5 fetal lung fibroblast cells, % of viable cells compared to untreated cells 100%", "description": "(§1) Upon completion of their syntheses, the in vitro activity of quinolone derivatives 3a–f, 4a–h, and 5a,b was evaluated by their growth-inhibitory potency in three cancer cell lines. At first, the viability of the synthesized compounds was examined with the MDA-MB-231 […] breast cancer cell line at concentrations of 10 µM, 15 µM, and 25 µM. Prostate cancer PC-3 cells and human fetal lung fibroblast MRC-5 cell lines were also subjected to this series of compounds at a unique concentration of 15 µM.\n(§2) MDA-MB-231 cells were grown in L15 supplemented with 15% serum, 2 mM glutamine, and 22 mM sodium bicarbonate in the presence of Penicillin/Streptomycin antibiotic mixture. PC-3 cells were cultured in RPMI 1640 supplemented with 10% serum and 2 mM glutamine in the presence of Penicillin/Streptomycin antibiotic mixture. MRC-5 cells were cultured in EMEM supplemented with 10% serum and 2 mM glutamine in the presence of Penicillin/Streptomycin antibiotic mixture (Reagents were purchased from Sigma Aldrich, Saint-Quentin-Fallavier, France).\n(§3) Cells were treated for 72 h with 10, 15, and 25 µM of the selected substances. Control cells were treated with the equivalent in DMSO.\n(§4) Cell survival was assessed using the CellTiter Aqueous One Proliferation assay (Promega, Charbonnières-les-Bains, France) whereby 2500 or 5000 cells per well were seeded in 96-well plates in 100 µL. At the end of the treatment, 20 µL of reagent was added, and absorbance readings were taken at 492 nm on a 96-well plate reader after 3 h of contact (on average)."}, "[2]": {"tested_on": "MDA-MB-231 cells", "assay": "MTS cell viability assay, MDA-MB-231 cells, 72 h", "format": "cell-based, human", "conditions": "Homo sapiens, MDA-MB-231, 72 h, 25 µM, % of viable cells compared to untreated cells 100%", "description": "as §1, §2, §3, §4"}, "[3]": {"tested_on": "MCF7", "conditions": "Figure 1; cited from earlier work"}, "[4]": {"tested_on": "PC-3 cells", "assay": "MTS cell viability / growth inhibition assay, PC-3 cells, 72 h", "format": "cell-based, human", "conditions": "Homo sapiens, PC-3; concentration needed to reduce cell growth by 50%, 72 h treatment; estimated; read-out: GI50 anti-proliferative effect PC-3", "description": "as §1\nThen, the growth inhibitory activities against PC-3 prostate cancer cell line were measured for the selected 3-heteroaryl-quinolin-2(1H)-one derivatives 3a–e.\nas §2, §3, §4"}, "[5]": {"tested_on": "Hsp90 client proteins (HER2, Raf-1 and cdk-4)", "conditions": "earlier studies on mode of action; cited from earlier work"}, "[6]": {"tested_on": "PC3", "conditions": "earlier studies on mode of action; cited from earlier work"}, "[7]": {"tested_on": "MCF-7 breast cancer cell line", "conditions": "earlier studies on mode of action; cited from earlier work"}, "[8]": {"tested_on": "colon carcinoma cells", "set-up": "method as in PMID 34952432", "conditions": "cited from earlier work"}},
  "data": [
    {"smiles": "Cn1c(=O)c(-c2nc3c(-c4ccc(Cl)cc4)ncnc3n2Cc2ccccc2)cc2ccccc21", "note": "[4g, 3-[9-benzyl-6-(4-chlorophenyl)-9H-purin-8-yl]-1-methylquinolin-2(1H)-one]", "values": [
      {"measurement": "melting point", "result": "202 to 203", "unit": "°C"},
      {"measurement": "viability at 72 h, 15 µM", "setting": "[1]", "result": "71 to 79", "unit": "%"},
      {"measurement": "viability at 25 µM", "setting": "[2]", "result": "~30", "unit": "%"}
    ]},
    {"smiles": "COc1ccc(C(=O)Nc2cc3cc(Br)ccc3n(C)c2=O)cc1", "note": "[6BrCaQ]", "values": [
      {"measurement": "IC50", "setting": "[3]", "result": 7, "unit": "µM"},
      {"measurement": "GI50", "setting": "[4]", "result": 10, "unit": "µM"},
      {"measurement": "Hsp90 client proteins (HER2, Raf-1 and cdk-4)", "setting": "[5]", "result": "downregulation"},
      {"measurement": "apoptosis level", "setting": "[6]", "result": "high apoptosis level"},
      {"measurement": "apoptosis level", "setting": "[7]", "result": "high apoptosis level"}
    ]},
    {"smiles": "Cn1c(=O)c(NC(=O)c2ccc(OCCCCCCCCCC[P+](c3ccccc3)(c3ccccc3)c3ccccc3)cc2)cc2cc(Br)ccc21.[Br-]", "note": "[6BrCaQ-C10-TPP]", "values": [
      {"measurement": "mitochondrial membrane disruption", "setting": "[8]", "result": "significant mitochondrial membrane disruption"}
    ]}
  ]
}
